Laboratory results published in patent US10654875B2, “Cell-penetrating, guanidinium-rich oligophosphotriesters for drug and probe delivery” (The Board of Trustees of the Leland Stanford Junior …, priority 2015, dated 2020).

How the values were obtained:
HeLa cells [1] = conditions: without attachment to a transporter, previously shown; cited from earlier work
HeLa cells [2] = assay: Uptake of maleimide conjugates by flow cytometry; conditions: 10 μM, 10 minutes
Experimental: (FIG. 4A) Delivery of FL-maleimide to HeLa cells by click-coupling to thiol-initiated HexPhos oligomer 8. Maleimide control and HexPhos8 conjugate (11 and 12 respectively) were formed by reaction of 10 with the corresponding thiol for 2 hours at room temperature in PBS. The resulting compounds were exposed to HeLa cells at 10 μM final concentration for 10 minutes before determining uptake by flow cytometry. Data shown is the average fluorescence of 10,000 events measured.
To explore this strategy, deprotected thiol-initiated HexPhos 8-mer (7) was mixed with fluorescein (FL) maleimide (10) in PBS at room temperature for 2 hours to effect a Michael addition and uptake of the resulting conjugate was determined by flow cytometry (FIG. 4, panel A).
HeLa cells were plated at 40,000 cells/well in 24-well plates and incubated at 37° C. for 12-24 hours to adhere. Before treatment, a 1:1 molar ratio of thiol-initiated HexPhos oligomer (7) and FL-maleimide (10, Molecular Probes) was incubated for 2 hours in PBS (pH 7.4) at a final concentration of 4 mM. […] After removal of the supernatant, cells were resuspended in 125 μL of PBS and transferred to FACS tubes and read on a flow cytometry analyzer for the presence of fluorescein. Results were analyzed by FlowJo software. Data presented is the mean fluorescence from 10,000 cells analyzed.

[3] = tested on: OVCA-429T (resistant) ovarian cancer cells; assay: MTT toxicity assay of PTX and PTX-HexPhos conjugate; format: cell-based, human; conditions: for Resistance Factor: ratio of EC50 in OVCA-429T and OVCA-429 cells
Experimental: The in vitro efficacy of PTX-HexPhos conjugate 16 was compared to free PTX in both wild-type and PTX-resistant ovarian cancer cells engineered to have high levels of Pgp up-regulation. OVCA-429 (wild-type) and OVCA-429T (resistant) cells were treated with free PTX (14) or the HexPhos conjugate 16 for 20 minutes in PBS, then washed and incubated for 3 days. After this time, cellular viability was assessed using a standard MTT assay to generate an EC50 value (the concentration at which overall cellular viability was half that of untreated cells) for each condition. […] The efficacy of these compounds can be expressed in terms of a “resistance factor” for free PTX and the HexPhos-paclitaxel conjugate 16, defined as the EC50 in resistant cells/the EC50 in wild-type cells.
MTT Toxicity Assays. The cytotoxicity of HexPhos oligomers, PTX alone, and PTX-HexPhos conjugate (16) were assessed by a standard MTT percent viability assay. Adherent cells (HeLa for oligomers alone, OVCA-429 or OVCA-429T for PTX and PTX-HexPhos conjugate) were plated at 5,000 cells/well in 96 well plates and allowed to incubate at 37° C. for 12-24 hours to adhere. Cells were washed with serum-free DMEM prior to treatment. In a second 96-well plate, compounds were serially diluted over a range of 200 μM to 400 nM, with two-fold dilutions between each well. For PTX conditions, a range of 20 μM to 40 nM was used. Each compound was tested in triplicate. […] Second plate was transferred to the plate containing cells, and incubated at 37° C. for 10 minutes, followed washing and replacement with 150 μL fresh serum-containing DMEM. Cells were incubated for an additional 72 hours at 37° C., after which time cellular viability was assayed by adding μ10 L of 3-(4,5-dimethylthiazol-2-yl)-2,5-diphenyltetrazolium bromide (MTT) solution (15 mg in 3 mL DMEM). Incubated for 2 hours at 37° C. […] Read absorbance on a plate reader at 570 and 690 nm. Subtracted absorbance at 570 from absorbance at 690 and normalized to wells with no cells as a minimum, and untreated cells as a maximum to calculate % viability.

[4] = tested on: OVCA-429 (wild-type) ovarian cancer cells; assay: as above; format: cell-based, human; conditions: wash, 72 hours drug-free media, concentrations based on paclitaxel content
Experimental: OVCA-429 (wild-type) and OVCA-429T (resistant) cells were treated with free PTX (14) or the HexPhos conjugate 16 for 20 minutes in PBS, then washed and incubated for 3 days. After this time, cellular viability was assessed using a standard MTT assay to generate an EC50 value (the concentration at which overall cellular viability was half that of untreated cells) for each condition. […] The efficacy of these compounds can be expressed in terms of a “resistance factor” for free PTX and the HexPhos-paclitaxel conjugate 16, defined as the EC50 in resistant cells/the EC50 in wild-type cells.
MTT Toxicity Assays. The cytotoxicity of HexPhos oligomers, PTX alone, and PTX-HexPhos conjugate (16) were assessed by a standard MTT percent viability assay. Adherent cells (HeLa for oligomers alone, OVCA-429 or OVCA-429T for PTX and PTX-HexPhos conjugate) were plated at 5,000 cells/well in 96 well plates and allowed to incubate at 37° C. for 12-24 hours to adhere. Cells were washed with serum-free DMEM prior to treatment. In a second 96-well plate, compounds were serially diluted over a range of 200 μM to 400 nM, with two-fold dilutions between each well. […] Read absorbance on a plate reader at 570 and 690 nm. Subtracted absorbance at 570 from absorbance at 690 and normalized to wells with no cells as a minimum, and untreated cells as a maximum to calculate % viability.

CN(C)c1cccc2c(S(=O)(=O)NCCO)cccc12 [Compound 4, 5-(dimethylamino)-N-(2-hydroxyethyl)naphthalene-1-sulfonamide]
cell entry of probe alone (HeLa cells [1]): not to enter cells

O=C1OC2(c3ccc(O)cc3Oc3cc(O)ccc32)c2ccc(N3C(=O)C=CC3=O)cc21 [Compound 10, fluorescein (FL) maleimide]
FL fluorescence of cells treated with controls (HeLa cells [2]): little FL fluorescence

CC(=O)O[C@H]1C(=O)[C@@]2(C)[C@H]([C@H](OC(=O)c3ccccc3)[C@]3(O)C[C@H](OC(=O)[C@H](O)[C@@H](NC(=O)c4ccccc4)c4ccccc4)C(C)=C1C3(C)C)[C@]1(OC(C)=O)CO[C@@H]1C[C@@H]2O [PTX Alone (14), paclitaxel]
EC50 ([3]; Homo sapiens, treated 20 minutes, wash, 72 hours drug-free media, MTT, assay limit 20 μM): > 20 µM | Resistance Factor [3]: >400 | Resistance Factor ([3]; listed as 14): ≥ 400 | EC50 ([4]; Homo sapiens, OVCA429, treated 20 minutes): 0.051 ± 0.037 µM | EC50 (μM) OVCA-429 (Wild-type) ([4]; treated 20 minutes): highly cytotoxic
